For 88 compounds, melting point results are on record in a melting point compilation (Tetko et al.; mined from patent text by program, amines drawn as free bases though some values may be those of a salt).

In general, melting point refers to the temperature of the solid-liquid transition. The compound `O=C(c1ccccc1)N1CCc2[nH]c3cccc(-c4ccccc4)c3c2CC1` displayed a melting point of 223 to 226 °C.

For the compound `COC(=O)c1ccc(OCCCN(C(N)=O)c2ccc(Cl)cc2)cc1`, the melting point was in the range of 141 to 142 °C.

For `CCN(CC)CCOc1ccc(C(O)(CC)c2cccc(Cl)c2)cc1` (stereo not drawn), the melting point was in the range of 64 to 65 °C.

As for `CC(C)(CO)NS(=O)(=O)c1ccc(Cl)c(N)c1`, the melting point worked out at 108 °C.

The compound `CCCn1cc(-c2ccc3nnn(Cc4ccc5ncccc5c4)c3n2)cn1` came in with a melting point of 128 to 130 °C.

The compound `Cn1c2cc(Cl)ccc2c2c(C(=O)O)nc(-c3ccccc3)nc21` yielded a melting point of 208 to 209 °C.

In turn, `CCc1noc(-c2cn(-c3cccc(Oc4ccc([N+](=O)[O-])cc4)c3)cn2)n1` came in with a melting point of 145 to 146 °C.

`CCC(C)S(=O)(=O)c1snc(OC(F)F)c1C#N` (stereo not drawn): the melting point was 42 to 43 °C.

With `Cc1[nH]c2ccc(F)cc2c1CCC(=O)N1CCN(c2ccccc2)CC1`, the melting point lay within 170 to 172 °C.

For the compound `COC(=O)[C@@H]1C[C@H](C(=O)OC(C)(C)C)N(C(=O)CNC(=O)OC(C)(C)C)[C@@H]1c1ccccc1` (racemic), the melting point was found to be 137 °C.

`Cc1cc(=O)n(-c2cc(C(=O)OC(C)C)c(C#N)cc2F)c(=O)n1C`: the melting point lay within 188 to 200 °C.

As to `O=C(O)CCCCCOc1nc(-c2ccccc2)cc(-c2ccccc2)n1`, the melting point lay in the range of 127 to 129 °C.

The compound `CC1(C)OCC(NC(=O)c2ccc([N+](=O)[O-])cc2)CO1` came in with a melting point of 211 °C.

Take `CCOc1ccc(-c2c(Cl)c(CN3C(=O)CCC3=O)nc3sc4c(c23)CCNC4)cc1`: the melting point was in the range of 215 to 217 °C.

For `CCC(=Cc1ccccc1)C1=CC=C2C(C1)C(C)(C)CCC2(C)C` (stereo not drawn), the melting point worked out at 65 °C.

As for `Cc1ccc(C#CCOCCn2cnc3c(N)nc4ccccc4c32)cc1C`, the melting point lay in the range of 214 to 216 °C.

In the case of `Cc1nn2ccccc2c1C1=NNC(=O)CC1C` (stereo not drawn), the melting point lay within 146 to 147 °C.

In the case of `Cc1cc(CNC(=O)C(=O)NCCc2ccccn2)c(C)o1`, the melting point is 112 to 115 °C.

`CC(=O)N(NC(N)=S)c1ccc([N+](=O)[O-])cc1`: the melting point turned out to be 242 °C.

With `CNC(=O)C(CNC(=O)c1ccccc1)NC(=O)OC(C)(C)C` (stereo not drawn), the melting point is 222 to 223 °C.

Consider `Nc1ncccc1-c1nc2ccc(-c3cccnc3)nc2n1-c1ccc(CNC(=O)c2ccccc2)cc1`, for which the melting point fell in the range of 253 to 256 °C.

The compound `COc1cc(CNc2ccc3c(c2)N2CCCN=C2S3)cc(OC)c1OC` came in with a melting point of 191 °C.

As for `O=C1CCN(Cc2ccc([N+](=O)[O-])cc2)C(=O)C1=C1SC=CS1`, the melting point lay in the range of 192 to 193 °C.

Compound `CCCCCCC(C)(C)c1cc(OCc2ccccc2)c(C2=C(CC#N)CCC(C)C2)c(OCc2ccccc2)c1` (stereo not drawn) registered a melting point of 85 to 86 °C.

Compound `O=C(C=Cc1ccc([N+](=O)[O-])cc1)N1CCc2c([nH]c3ccccc23)C1c1ccc2c(c1)OCO2` (stereo not drawn) registered a melting point of 158 °C.

For the compound `O=C(NCCO)/C(=C/c1ccc(OC(F)(F)F)cc1)NC(=O)c1ccc(Oc2ccc(Cl)cc2)cc1`, the melting point fell in the range of 77 to 82 °C.

In turn, `COc1cc(-c2nn(C(C)(C)C)c(N)c2C(N)=O)cc(OC)c1OC` came in with a melting point of 180 to 192 °C.

`COC(=O)CNC(=O)c1ccc2ccccc2c1` came in with a melting point of 118 °C.

In turn, `COc1cccc(C(=O)Nc2ccc3sc(C)nc3c2Cl)c1` had a melting point of 177 to 179 °C.

`CCCCCCCCCCCCCCCCC#CCC(CO)COCCCCCCCCCCCCCCCC` (stereo not drawn): the melting point fell in the range of 46 to 47 °C.

Compound `CN(C)CCN(C(N)=O)c1cnccn1` had a melting point of 105 to 108 °C.

On to `O=P(c1ccccc1)(c1ccccc1)N1C[C@@H](P(c2ccccc2)c2ccccc2)C[C@H]1CP(c1ccccc1)c1ccccc1`, for which the melting point was found to be 130 °C.

The compound `CC1(C)CC(NC(=O)C(O)c2ccccc2)c2cc(C#N)ccc2O1` (stereo not drawn) returned a melting point of 120 to 121 °C.

In turn, `CCC(=O)c1cc(CC)c(OC)cc1OC` showed a melting point of 64 to 65 °C.

Compound `COc1ccc(C=CC(=O)c2c(OC)cc(OC)cc2OC(=O)c2ccco2)cc1` showed a melting point of 127 °C.

The compound `ON=c1cc(-c2cc3cccn3cn2)oc2ccc(OCCc3cccc(C(F)(F)F)c3)cc12` gave a melting point of 217 to 218 °C.

`Cc1cc(C2=NOC(c3cc(Cl)cc(Cl)c3)(C(F)(F)F)C2)ccc1C(=O)NC1CON(CCO)C1=O` (stereo not drawn) returned a melting point of 78 °C.

The compound `O=C1C(=O)c2ccccc2C2=C1SCC(CNCCc1ccccc1)O2` (stereo not drawn) showed a melting point of 80 to 82 °C.

For `c1cnc(SCc2nc3ccccc3[nH]2)nc1`, the melting point lay in the range of 154 to 155 °C.

`CCCCCCCCC#CCC#CCC#CCCCC(=O)O` yielded a melting point of 69 to 70 °C.

`C=CC[C@H]1CC(C(=O)O)=C[C@@H](OC(CC)CC)[C@@H]1NC(C)=O`: the melting point was 229 to 230 °C.

For the compound `Cc1cc(-c2ccc(S(C)(=O)=O)cc2)n(-c2ccc(F)cc2)c1`, the melting point fell in the range of 127 to 130 °C.

Turning to `O=C(O)Cc1cscc1Nc1c(Cl)cccc1Cl`, the melting point was in the range of 179 to 180 °C.

`CON=C(C(=O)O)c1cccs1`: the melting point was found to be 106 °C.

For the compound `COCC(=O)OC(=C1C(=O)N(C(N)=O)c2cc(Cl)c(F)cc21)c1cccs1`, the melting point is 199 to 200 °C.

The compound `Cn1cc(C(=O)Nc2ccccc2-c2cc(Cl)cc(Cl)c2)c(C(F)(F)F)n1` registered a melting point of 101 to 105 °C.

`O=C(c1cccs1)c1cnn2c(-c3cccc(-c4nnn(CCN5CCCC5)n4)c3)ccnc12` showed a melting point of 98 °C.

`CCOC(=O)C1=C(C)Nc2ccnc(OC(C)C)c2C1c1cccc2c1OCO2` (stereo not drawn) had a melting point of 156 to 158 °C.

With `O=C(NCc1ccc(F)cc1)c1nc2n(c(=O)c1OCc1ccccc1)CCN2Cc1ccccc1`, the melting point came to 125 °C.

Compound `CCCCCCCCCCOc1cc(O)cc(OCCCCCCCCCC)c1` gave a melting point of 48 to 50 °C.

`CC(C)NCCCOc1ccc(N)cc1Cc1ccccc1` displayed a melting point of 41.1 °C.

In turn, `N#Cc1ccc(-c2ccccc2OCC2CC2)[nH]c1=O` had a melting point of 250 to 252 °C.

Take `CC(C)Nc1c(-c2cc(F)cc(F)c2F)c(Cl)nc2ncnn12`: the melting point is 151 °C.

For `CC(C)(C1OCCO1)C(O)(Cn1cncn1)c1ccc(F)cc1` (stereo not drawn), the melting point was 90 °C.

In turn, `CCCCCCCCCCCCCCCCSCC(CNS(=O)(=O)CCCCl)OC(=O)NC` (stereo not drawn) came in with a melting point of 84.5 to 85.5 °C.

In turn, `CCOC(=O)Cc1nn(CC2Nc3cc(C(F)(F)F)ccc3S2)c(=O)c2ccccc12` (stereo not drawn) yielded a melting point of 134 °C.

Turning to `CC1(C)OC(=O)N2CCNCC21` (stereo not drawn), the melting point fell in the range of 92 to 93 °C.

`CC(C)(C)NC(=O)[C@@H]1CC(=O)CN1C(=O)OC(C)(C)C` showed a melting point of 147 to 149 °C.

Regarding `O=C(NCC(O)c1ccccc1)c1ccc2n1Cc1ccccc1N(C(=O)COc1ccc(Cl)cc1)C2` (stereo not drawn), the melting point lay within 157 to 158 °C.

Consider `O=C(NCCO)c1cccc(-c2cncc3cc(Cc4cccc(C(F)(F)F)c4)oc23)c1`, for which the melting point lay within 155 to 156 °C.

On to `O=C(O)CCOc1cccc(CNC(=O)C2Cc3ccccc3N2S(=O)(=O)c2ccc(-c3cccc(C(F)(F)F)c3)cc2)c1` (stereo not drawn), for which the melting point was determined as 70 °C.

In the case of `COc1c(Cl)ccc(-c2cc(N)c(Cl)c(C(=O)N3CC=CCO3)n2)c1F`, the melting point is 78 to 81 °C.

In turn, `O=C(O)c1c[nH]c(CCc2ccccc2)n1` returned a melting point of 126 to 130 °C.

`O=C(c1ccccc1)C(Cl)Cn1cnc(Cl)c1` (stereo not drawn) displayed a melting point of 106 to 110 °C.

The compound `O=c1ncc(Br)cn1CCC(O)Cl` (stereo not drawn) showed a melting point of 162 to 164 °C.

As to `COc1cc2c(Nc3ccc(Sc4nccn4C)c(Cl)c3)c(C#N)cnc2cc1/C=C/CCO`, the melting point lay within 273 to 278 °C.

`Cc1c(C(=O)O)ccc(S(C)(=O)=O)c1N` yielded a melting point of 197 to 198 °C.

`O=C(NC1CC1)c1ccc(CCN2CC=C(c3c[nH]c(-c4ccc(F)cc4)c3-c3ccncc3)CC2)cc1`: the melting point was 226 to 228 °C.

`CCCC1(C)C(=O)N(CC(=O)Nc2c(C(C)C)cccc2C(C)C)C(=O)N1c1ccc(C)cc1` (stereo not drawn) yielded a melting point of 186 °C.

Take `COC(=O)c1cc(OC)c(OCc2ccccc2)c(OC)c1`: the melting point lay within 62 to 65 °C.

The compound `O=C(O)COc1ccc2c(-c3ccco3)noc2c1Cl` had a melting point of 230 to 233 °C.

Compound `CSC1NC(=O)N(C2CCCCC2)C(=O)N1C` (stereo not drawn) had a melting point of 135 to 137 °C.

Compound `COCc1nc2c(NCc3c(C)cccc3C)cc(C(=O)O)cc2n1C` showed a melting point of 269 to 272 °C.

As for `CCC1(C(=O)C=Cc2ccc(C(=O)O)cc2)CC1`, the melting point came out at 184 °C.

In turn, `CCc1[nH]nc2c1C(=O)c1c(NC(=O)CN3CCC(CN)CC3)cccc1-2` registered a melting point of 174 to 176 °C.

Turning to `COc1ccc2c(-c3ccc(OCCN4CCCC4)cc3)c(Cc3ccc(Cl)cc3)oc2c1`, the melting point was determined as 75 °C.

`C#Cc1cccc(Nc2ncnc3ccc(S(=O)(=O)n4ccc(C=CC(=O)OCC)c4)cc23)c1` registered a melting point of 154 to 156 °C.

Compound `O=C(C=Cc1ccc2c(c1)OCO2)c1cccc(OCCCCBr)c1` displayed a melting point of 97 to 98 °C.

Take `Nc1ccn([C@@H]2C[C@H](CO)[C@@H](O)[C@H]2O)c(=O)n1`: the melting point is 214 °C.

As to `CC(=O)c1ccc(-c2coc3ccc(-c4nnc(C)o4)cc23)cc1`, the melting point lay in the range of 197 to 198 °C.

`Nc1ccc(-c2ncc(Br)cn2)c([N+](=O)[O-])c1`: the melting point was 165 to 167 °C.

`COC1=C(OC)C(=O)C2=C(CC(CCCCOc3ccc(C(=O)O)cc3)C2)C1=O`: the melting point was 149 to 153 °C.

`CC1(C)OC(c2ccc(S(C)(=O)=O)c(Br)c2)=C(c2ccccc2)C1=O` showed a melting point of 154 to 155 °C.

Regarding `O=C(NCCCl)Sc1ncnc2nc[nH]c12`, the melting point is 221 to 223 °C.

For the compound `C=CCN(CC=C)Cc1nc(-c2ncn3c2[C@@H]2CCN2C(=O)c2cc(F)ccc2-3)no1`, the melting point fell in the range of 100 to 105 °C.

Consider `N=C(NO)c1ccc(-c2ccc(-c3nc4cc(C(=N)NO)ccc4[nH]3)cc2)c(OCc2ccccc2)c1`, for which the melting point fell in the range of 250 to 253 °C.

In turn, `CCOC(=O)c1c[nH]c2cc(C)cc(O)c12` had a melting point of 152 to 154 °C.

As for `N=C(N)c1cccc(Cc2c[nH]cn2)c1O`, the melting point worked out at 249 °C.
